# Patent EP3593819A1, “COMPOSITIONS FOR THERAPEUTIC USES CONTAINING 5-HTP AND CARBIDOPA” (Medday Pharmaceuticals, priority 2018, dated 2020)
# Read-outs that look alike come from different tables or passages of the source.
# Legend:
# [1] = Screening stress test study on separate reference solutions and a mix solution; type: physicochemical
# Experimental: Stress studies were performed on the separated reference solutions and a mix solution under heat (60°C for 24 h), and under acidic, basic, or oxidative (H2O2) conditions, and ICH light (700 W/m^2 for 8 h) conditions.
# [2] = cited from earlier work
# [3] = Second wave of solubility testing with acidified vehicles and combinations; type: physicochemical; details: 40% (w/v) HP-3-cyclodextrin + 38.4 mg/mL citric acid, pH2.0, compared to similar solution containing only 20% (w/v) HP-3-cyclodextrin
# Experimental: Based on the outcome of these solubility tests, a second wave of solubility testing was performed, with acidified vehicles and combinations thereof.
# The highest solubility was obtained in 40% (w/v) HP-3-cyclodextrin + 38.4 mg/mL citric acid, pH2.0, for both APIs (Active Pharmaceutical Ingredients). The marginal increase in solubility in this vehicle, compared to similar solution containing only 20% (w/v) HP-3-cyclodextrin is only -20% for 5-HTP and -40% for carbidopa. Therefore, and since dosing of HP-3-cyclodextrin is limited to about 8 - 16 g/day (for max. 14 days, short-term Phase I studies), it was foreseen to use the vehicle containing only 20% HP-b-cyclodextrin as the first choice for dosing safety reasons, i.e.: • for a 600 mg 5-HTP/60 mg carbidopa dose with a 30 mg/mL 5-HTP/3 mg/mL carbidopa solution in solvent A (40% HP-β-CD), 20 mL solution is required, corresponding with an intake of 8 g HP-β-CD, and; • for a 600 mg 5-HTP/60 mg carbidopa dose with a 30 mg/mL 5-HTP/3 mg/mL carbidopa solution in solvent B (20% HP-β-CD), 20 mL solution is required, corresponding with an intake of only 4 g HP-β-CD.
# [4] = UV-measured solubility of 5-HTP and carbidopa; type: physicochemical
# Experimental: The individual solubility of 5-HTP and carbidopa was assessed and compared to the data in the literature.
# Table 2. Solubility results
# [5] = separate solution, ICH light (700 W/m^2 for 8 h)
# [6] = separate solution, acidic conditions, immediate, no further degradation after 24 h
# [7] = separate solution, basic medium, after 24 h
# [8] = separate solution, heat (60°C for 24 h)
# [9] = separate solution, oxidative (H2O2) stress, T0 and T24h
# [10] = 0.1N HCl, simulated gastric fluid, 0.1N HCI
# [11] = 5% Soluplus in water, aqueous with cosolvent or surfactant or cyclodextrin
# [12] = 10% w/v M-β-cyclodextrin in water (Kleptose crysmeb), aqueous with cosolvent or surfactant or cyclodextrin
# [13] = 20% w/v HP-β-cyclodextrin in water (Kleptose), aqueous with cosolvent or surfactant or cyclodextrin, 20% w/v HP-β-cydodextrin in water (Kleptose)
# [14] = Ethanol, organic solvent or mixture
# [15] = Kolliphor RH40 (5% in water), aqueous with cosolvent or surfactant or cyclodextrin
# [16] = PEG400, organic solvent or mixture
# [17] = Polysorbate 20 (5% in water), aqueous with cosolvent or surfactant or cyclodextrin
# [18] = Propylene glycol, organic solvent or mixture
# [19] = Sepiclear (5% in water), aqueous with cosolvent or surfactant or cyclodextrin
# [20] = Solutol HS15 (5% in water), aqueous with cosolvent or surfactant or cyclodextrin
# [21] = Transcutol HP, organic solvent or mixture
# [22] = oil or lipid, Labrafac lipophile, accurate measurement not possible due to diverging spectrum
# [23] = oil or lipid, Sunflower oil, accurate measurement not possible due to diverging spectrum
# [24] = pH 5, aqueous buffer, Phosphate buffer, pH5
# [25] = pH 6.8, aqueous buffer, Phosphate buffer, pH6.8
# [26] = pH 9, aqueous buffer, Phosphate buffer, pH9
"degradation [1, 5]","degradation [1, 6]","degradation [1, 7]","degradation [1, 8]","degradation [1, 9]",marginal increase in solubility [3] [%],"solubility [4, 10] [µg/mL]","solubility [4, 11] [µg/mL]","solubility [4, 12] [µg/mL]","solubility [4, 13] [µg/mL]","solubility [4, 14] [µg/mL]","solubility [4, 15] [µg/mL]","solubility ([4]; Labrasol ALF, oil or lipid) [µg/mL]","solubility [4, 16] [µg/mL]","solubility [4, 17] [µg/mL]","solubility [4, 18] [µg/mL]","solubility [4, 19] [µg/mL]","solubility [4, 20] [µg/mL]","solubility [4, 21] [µg/mL]",Structure (SMILES),solubility ([2]; Water),also measured
about 88%,more than 20%,about 30%,90%,did not influence,-40,11800,12900,2800,3100,70,1500,12800,1500,1400,15000,3100,1400,600,"C[C@@](Cc1ccc(O)c(O)c1)(NN)C(=O)O [Carbidopa, (2S)-3-(3,4-dihydroxyphenyl)-2-hydrazinyl-2-methylpropanoic acid]",1 - 10 ^(2) mg/mL,"stability in solution ([1]; stress studies, overall): very unstable in solution and is quickly degraded; solubility ([2]; 3N HCI): 100 - 1000 ^(3) mg/mL; solubility ([2]; Acetone): < 0.1 ^(3) mg/mL; solubility ([2]; Chloroform): < 0.1 ^(2) mg/mL; solubility ([2]; Ethanol): 0.1 - 1 ^(2) mg/mL; solubility ([2]; Ether): < 0.1 ^(3) mg/mL; solubility ([2]; Methanol): 1 - 10 ^(3) mg/mL; solubility ([2]; Methylene chloride): < 0.1 ^(3) mg/mL; solubility [4, 22]: < 10000 µg/mL; solubility [4, 23]: < 10000 µg/mL; solubility [4, 24]: 1500 µg/mL; solubility [4, 25]: 2100 µg/mL; solubility [4, 26]: 4700 µg/mL"
about 15%,not sensitive,about 15%,not sensitive,not sensitive,-20,29400,12400,13500,17000,5100,9500,4800,2300,9400,35400,14500,9000,13700,"N[C@@H](Cc1c[nH]c2ccc(O)cc12)C(=O)O [5-HTP, (2S)-2-amino-3-(5-hydroxy-1H-indol-3-yl)propanoic acid]",1 - 10^(1) mg/mL,"degradation ([1]; mix solution of 5-HTP and carbidopa, all stress conditions): mainly light and acidic stress influenced the degradation; solubility [4, 22]: < 10000 µg/mL; solubility [4, 23]: < 10000 µg/mL; solubility [4, 24]: 8400 µg/mL; solubility [4, 25]: 8900 µg/mL; solubility [4, 26]: 9300 µg/mL"
